The source of these data is patent US20110130405A1, “SUBSTITUTED QUINAZOLINES AS BLOOD PLATELET LOWERING AGENTS” (Shire LLC, priority 2008, published 2011).

Each structure is given as a SMILES string.

The target in data set [1] is human phosphodiesterase III (PDE III). Conditions: cited from earlier work.
For data set [2] the following is noted: human; cited from earlier work.
The test system of data set [3] is erythroid or myelomonocytic differentiation. Conditions: stimulated by erythropoietin or granulocyte-macrophage colony-stimulating factor; cited from earlier work.
The subject of data set [4] is human megakaryocytopoiesis. Conditions: cited from earlier work.
Data set [5] can be described thus: pharmacokinetics in humans. Format: in vivo, human. Conditions: after anagrelide treatment. An excerpt: The metabolism of anagrelide generally proceeds extremely rapidly, resulting in a less than ideal pharmacokinetic profile of the drug. […] This, combined with the side-effects profile, can lead to poor patient compliance. Furthermore, anagrelide undergoes a large first pass effect (>50%) leading to considerable intersubject variation in achieved exposures and, therefore, potentially variable drug response. Also, exposure to the pharmacologically active metabolite varies dramatically between patients since its formation is dependent on CYP1A, an enzyme whose expression is highly dependent on exposure to inducing agents such as cigarette smoke. Overall, this may result in the need for careful dose titration in patients being treated with anagrelide.

The test system of data set [6] is human phosphodiesterase III (PDE III). The experiment in a line: PDE III inhibition. In kind it is biochemical. Conditions: more potent than anagrelide. An excerpt:
In early volunteer trials, the most frequently reported adverse effects AEs other than headache were palpitations, postural dizziness and nausea. During patient studies, the most frequently reported drug-related AEs were headache, palpitations, oedema/fluid retention, nausea/vomiting, diarrhea, dizziness and abdominal pain. These effects are all likely to arise from the secondary, cardiovascular pharmacology associated with anagrelide resulting from its inhibitory effects on human phosphodiesterase III (PDE III). […] Inhibition of myocardial PDE III leads to positive inotropy (increasing of the force of contractions of the heart), increased chronotropy (increase in heart rate), and peripheral vasodilatation. Such cardiovascular manifestations of this inhibition are typically seen with the classical positive inotropes, milrinone and enoximone, and exploited in the short-term acute treatment of congestive heart failure. However, in the treatment of a so-called silent disease (i.e., asymptomatic) such as ET, the cardiovascular side-effects of palpitations and tachycardia associated with anagrelide limit its utility and a significant proportion of patients—reportedly between 25 and 50%—fail to tolerate the drug during long term treatment.

With `O=C1CN2Cc3c(ccc(Cl)c3Cl)N=C2N1` [Anagrelide, 6,7-dichloro-1,5-dihydroimidazo[2,1-b]-quinazolin-2(3H)-one], the IC50 – broadly, the concentration at which inhibition is half-maximal – in data set [1] was roughly 0.029 µM; in data set [4] (in vitro, dose-dependent, read-out: estimated IC50, inhibition of TPO-induced megakaryocytopoiesis), roughly 0.026 µM. Also, the first pass effect in data set [2] is on record as greater than 50%. Moreover, the “effect on erythroid or myelomonocytic differentiation” value in data set [3] was “does not affect”.

For `Cc1[nH]c(=O)c(C#N)cc1-c1ccncc1` [milrinone], in data set [1], the IC50 was 0.17 to 0.35 µM.

Consider `O=C1NC2=Nc3ccc(Cl)c(Cl)c3CN2C1O` (stereo not drawn) [3-hydroxyanagrelide], for which, in data set [2], the typical half-life was 2.5 h. In addition, the “in vivo exposure relative to parent drug” value in data set [5] is listed as 2-3 fold. In data set [6], the “potency as PDE III inhibitor relative to anagrelide” value is “over 40 fold”. Besides, the “potency of inhibition of megakaryocytopoiesis relative to parent drug” value in data set [4] (compared with anagrelide) is recorded as “no more potent than the parent drug”.
